Experimental findings from ChEMBL document CHEMBL1201862, “PubChem BioAssay data set” (2004) are described below.

Structures are written as SMILES.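 Step 1: Grow cells in 96-well plates. Step 2: Expose to compound for 48 hours at 5 concentrations. Step 3: Interpolate endpoints linearly; if unreached, use highest concentration. GI50 is the concentration that inhibits growth by half.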 The source made the active and inactive calls. No stated cut-off is given here; in the data, active = GI50 up to about 1.1 µM and inactive = higher.

Holding throughout (assay): inhibition of tumour cell growth, NCI panel, 48 h
The test system of experiment [1] is MCF7.
In experiment [2] the test system is U-251.
For experiment [3], the system named is DU-145.
In experiment [4] the test system is TK-10.
The subject of experiment [5] is HCT-15.
Experiment [6] relates to A549.
In experiment [7] the test system is OVCAR-5.
In experiment [8] the test system is HCC 2998.
The test system of experiment [9] is BT-549.
For experiment [10], the system named is IGROV-1.
Experiment [11] relates to NCI-H460.
Experiment [12] has as its system NCI-H522.
Experiment [13] has as its system NCI-H23.
The test system of experiment [14] is MOLT-4.
The subject of experiment [15] is RPMI-8226.
Experiment [16] relates to OVCAR-8.
Experiment [17] relates to MDA-MB-435.
Experiment [18] has as its system MDA-N.
Experiment [19] deals with HOP-92.
Experiment [20] has as its system SK-OV-3.

For the compound `O=C(Nc1sccc1S(=O)(=O)c1ccccc1)c1ccccc1`, the GI50 in [1] was > 100 µM (inactive); in experiment [2], > 100 µM (inactive); in experiment [3] it was > 100 µM (inactive); in experiment [4], > 100 µM (inactive); in [5] it was 7.16 µM; in experiment [6] it was > 100 µM (inactive). Also, the GI50 in [7] was > 100 µM (inactive); in experiment [8] it was > 100 µM (inactive); in experiment [9], > 100 µM (inactive); in experiment [10], > 100 µM (inactive); in experiment [11], > 31.6 µM (inactive); in experiment [12], > 100 µM (inactive). The GI50 is > 100 µM (inactive) in [13]; > 100 µM (inactive) in [14]; > 100 µM (inactive) in experiment [15]; > 100 µM (inactive) in [16]; 3.69 µM (inactive) in experiment [17]; 3.73 µM (inactive) in experiment [18]. The GI50 in experiment [19] and in experiment [20] was > 100 µM (inactive) in each case.
For `C=C1CN(Cc2ccccc2)[C@@H]2CCCCC[C@H](C#N)[C@H]12`, the GI50 is > 100 µM (inactive) in [1]; > 94 µM (inactive) in experiment [2]; > 100 µM (inactive) in experiment [3]; > 100 µM (inactive) in experiment [4]; more than 100 µM in experiment [5]; 78 µM (inactive) in experiment [6]. The GI50 in [7] was > 100 µM (inactive); in experiment [8] it was > 100 µM (inactive); in experiment [9], > 100 µM (inactive); in experiment [10], > 100 µM (inactive); in [11], > 78.2 µM (inactive); in [12], 65.8 µM (inactive). Moreover, the GI50 is > 93.1 µM (inactive) in experiment [13]; 24.3 µM (inactive) in [14]; 22.5 µM (inactive) in [15]; > 68.4 µM (inactive) in [16]; > 76 µM (inactive) in [17]; > 100 µM (inactive) in experiment [18]. Besides, the GI50 is 36.3 µM (inactive) in [19] and > 86.9 µM (inactive) in [20].
Regarding `COC(=O)/C(C#N)=C(\Nc1ccccc1)N1CCCCC1`, the GI50 in [1] is > 100 µM (inactive); in [2], > 100 µM (inactive); in experiment [3], > 100 µM (inactive); in experiment [4] it was > 100 µM (inactive); in [5] it was more than 100 µM; in [6], > 100 µM (inactive). Also, the GI50 in experiment [7], in experiment [8], in experiment [9], in experiment [10], in experiment [11] and in experiment [12] was > 100 µM (inactive) each time. Also, the GI50 in experiment [13], in experiment [14], in experiment [15], in [16], in experiment [17] and in experiment [18] was > 100 µM (inactive) each time. The GI50 in experiment [19] and in [20] was > 100 µM (inactive) throughout.
Consider `Cc1ccccc1C(=N)c1ccccc1Cc1cccc2ccccc12`, for which the GI50 in experiment [1] was 19.1 µM (inactive); in [2], 18.2 µM (inactive); in experiment [3], 21.8 µM (inactive); in [4], 59.3 µM (inactive); in [5] it was 18.7 µM; in experiment [6], 25.1 µM (inactive). Also, the GI50 in experiment [7] is 37.5 µM (inactive); in [8], 17.5 µM (inactive); in experiment [9], 33.2 µM (inactive); in experiment [10], 28.9 µM (inactive); in [11], 15.5 µM (inactive); in experiment [12] it was 13.1 µM (inactive). Besides, the GI50 was 24.5 µM (inactive) in experiment [13]; 14 µM (inactive) in [14]; 7.43 µM (inactive) in experiment [15]; 32 µM (inactive) in experiment [16]; 21.9 µM (inactive) in experiment [17]; 22.2 µM (inactive) in experiment [18]. Besides, the figures for the GI50 in experiment [19] and in experiment [20] were 17.1 µM (inactive) and 26.3 µM (inactive), respectively.
